According to patent US4749687A, “Renin inhibitors containing statine or derivatives thereof” (Pfizer Inc., priority 1985, dated 1988):
Counter-ions that a name gives are not always drawn. Where a SMILES comes first, the peptide text is derived from it.

Target: T1, renin (Homo sapiens, UniProt P00797)
T1 construct: Blood plasma was obtained from healthy laboratory personnel, pooled and stored frozen until required; from tissue; host or cells: pooled human blood plasma (supernatant after centrifugation)
T1 sequence (P00797 67-406): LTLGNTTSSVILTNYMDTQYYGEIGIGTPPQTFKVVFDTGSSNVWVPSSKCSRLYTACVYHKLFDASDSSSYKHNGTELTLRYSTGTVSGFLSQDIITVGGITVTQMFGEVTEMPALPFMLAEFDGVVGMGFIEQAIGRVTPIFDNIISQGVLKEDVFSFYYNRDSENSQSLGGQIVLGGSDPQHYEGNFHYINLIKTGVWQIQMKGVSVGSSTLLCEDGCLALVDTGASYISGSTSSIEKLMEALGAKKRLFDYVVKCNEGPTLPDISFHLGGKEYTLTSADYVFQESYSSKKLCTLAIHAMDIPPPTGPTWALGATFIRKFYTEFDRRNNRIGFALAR
Test: Inhibition of the angiotensinogen-cleaving activity of renin in vitro (plasma, angiotensin I radioimmunoassay)
Format: biochemical
Conditions: pooled blood plasma from healthy laboratory personnel, pH 7.4, incubated three hours at 37° C., angiotensin I by radioimmunoassay; read-out: IC50 (inhibitor concentration required to produce a fifty percent inhibition of the angiotensinogen-cleaving activity of renin)
Description: Blood plasma was obtained from healthy laboratory personnel, pooled and stored frozen until required. Before use, a quantity of this plasma was defrosted and centrifuged, and the supernatant mixed with protease inhibitors and buffered to pH 7.4. Renin inhibitors were added at different levels to different aliquots of the plasma supernatant, and the resulting mixtures (310 lambda) incubated for three hours at 37° C. along with renin inhibitor-free control mixtures. After incubation, the mixtures were quenched in ice water and each assayed for angiotensin I using angiotensin I antibody. The production of angiotensin I in the presence of a renin inhibitor was compared to that produced in the absence of the inhibitor, and a percentage inhibition was calculated. Using data obtained from duplicate incubations at each of several different inhibitor concentrations, the inhibitor concentration in the incubation mixture required to produce a fifty percent inhibition of the angiotensinogen-cleaving activity of renin, i.e. the IC50 of the inhibitor, was calculated for various different inhibitors.
The angiotensin I in the quenched incubation mixtures was assayed by means of a radioimmunoassay, using components of a renin radioimmunoassay kit supplied by Becton Dickinson and Co. (Orangeburg, N.Y.). This radioimmunoassay was based upon the one developed by Haber et al., J. Clin. Endocrinol., 29, pp. 1349-1355 (1969).

IC50 [µM] | Compound
< 4 | CC(C)(C)OC(=O)N[C@@H](Cc1ccccc1)C(=O)N[C@@H](Cc1c[nH]cn1)C(=O)N[C@@H](CC1CCCCC1)[C@@H](O)CC(=O)N[C@@H](CCCCN)C(=O)N[C@@H](Cc1ccccc1)C(=O)O [Example 9, [N-(t-butyloxycarbonyl)-Phe]-His-Cyclostatine-Lys-Phe] (HELM PEPTIDE1{[CC(C)(C)OC(=O)[*:2]].F.H.[O=C(C[C@H](O)[C@H](CC1CCCCC1)N[*:1])[*:2]].K.F}$$$$V2.0)
< 4 | CC(C)(C)OC(=O)N1CCC[C@H]1C(=O)N[C@@H](Cc1ccccc1)C(=O)N[C@@H](Cc1c[nH]cn1)C(=O)N[C@@H](CC1CCCCC1)[C@@H](O)CC(=O)N[C@@H](CCCCN)C(=O)N[C@@H](Cc1ccccc1)C(=O)O [Example 10, [N-(t-butyloxycarbonyl)-Pro]-Phe-His-CyclostatineLys-Phe] (HELM PEPTIDE1{[CC(C)(C)OC(=O)[*:2]].P.F.H.[O=C(C[C@H](O)[C@H](CC1CCCCC1)N[*:1])[*:2]].K.F}$$$$V2.0)
< 4 | CC[C@H](C)[C@@H](CN[C@@H](Cc1ccccc1)C(=O)O)NC(=O)C[C@H](O)[C@H](CC1CCCCC1)NC(=O)[C@H](Cc1c[nH]cn1)NC(=O)[C@H](Cc1ccccc1)NC(=O)OC(C)(C)C [Example 11, [N-(t-butyloxycarbonyl)-Phe]-His-Cyclostatine-[Amino(2-secbutyl-ethylene)]-Phe Acetic Acid Salt]
< 4 | [N-(t-butyloxycarbonyl)-Phe]-His-Aminostatine-Ile-Phe Diacetate [Example 5]
